Data published in PMC8518391, “Synthesis and Biological Evaluation of Dantrolene‐Like Hydrazide and Hydrazone Analogues as Multitarget Agents for Neurodegenerative Diseases” (Chemmedchem, 2021).

Key:
hAChE = target: T1, hAChE (Homo sapiens, UniProt P22303); assay: biochemical; conditions: for inhibition at 10 µM: read-out: % inhibition at 10 μM hAChE
T1 construct: purchased Sigma Aldrich
Excerpt: (§1) Readings were made with Infinite M1000 Pro plate reader (Tecan, Cernusco s.N., Italy) and statistical regressions with Prism software (GraphPad Prism version 5.00 for Windows, GraphPad Software, San Diego, CA, USA).

hMAO A = target: T2, hMAO A (Homo sapiens, UniProt P21397); assay: biochemical; conditions: for inhibition at 10 µM: read-out: % inhibition at 10 μM hMAO A
T2 construct: purchased Sigma Aldrich
T2 sequence (P21397 1-527): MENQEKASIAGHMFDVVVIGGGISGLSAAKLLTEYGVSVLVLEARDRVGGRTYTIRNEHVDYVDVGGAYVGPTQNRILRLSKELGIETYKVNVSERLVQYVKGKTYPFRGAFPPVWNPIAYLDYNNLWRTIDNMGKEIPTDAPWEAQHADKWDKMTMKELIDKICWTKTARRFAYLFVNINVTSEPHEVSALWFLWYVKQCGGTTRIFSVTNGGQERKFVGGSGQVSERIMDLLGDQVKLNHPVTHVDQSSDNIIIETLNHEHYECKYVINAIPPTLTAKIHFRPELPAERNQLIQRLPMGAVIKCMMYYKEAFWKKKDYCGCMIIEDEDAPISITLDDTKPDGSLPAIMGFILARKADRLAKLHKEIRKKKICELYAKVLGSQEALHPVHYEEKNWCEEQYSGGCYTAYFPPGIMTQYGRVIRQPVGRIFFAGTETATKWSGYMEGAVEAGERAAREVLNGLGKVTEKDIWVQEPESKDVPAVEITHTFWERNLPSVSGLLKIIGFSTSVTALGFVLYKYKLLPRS
Excerpt: as §1

hMAO B = target: T3, hMAO B (Homo sapiens, UniProt P27338); assay: biochemical; format: biochemical; conditions: for inhibition at 10 µM: read-out: % inhibition at 10 μM hMAO B
T3 construct: purchased Sigma Aldrich
T3 sequence (P27338 1-520): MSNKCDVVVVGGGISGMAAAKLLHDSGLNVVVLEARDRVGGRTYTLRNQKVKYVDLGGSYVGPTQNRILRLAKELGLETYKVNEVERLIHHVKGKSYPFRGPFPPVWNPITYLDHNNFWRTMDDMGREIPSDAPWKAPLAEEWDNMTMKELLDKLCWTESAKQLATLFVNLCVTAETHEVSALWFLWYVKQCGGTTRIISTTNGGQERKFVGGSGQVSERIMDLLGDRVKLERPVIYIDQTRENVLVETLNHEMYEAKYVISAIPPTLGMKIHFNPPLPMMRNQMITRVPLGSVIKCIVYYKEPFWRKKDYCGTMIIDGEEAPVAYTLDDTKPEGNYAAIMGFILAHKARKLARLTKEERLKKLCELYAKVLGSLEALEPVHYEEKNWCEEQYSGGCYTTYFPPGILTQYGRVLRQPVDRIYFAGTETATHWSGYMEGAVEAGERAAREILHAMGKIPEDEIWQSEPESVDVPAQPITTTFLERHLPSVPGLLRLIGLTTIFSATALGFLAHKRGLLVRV

[1] = RP-HPLC lipophilicity index log k’; format: physicochemical; conditions: MeOH/phosphate buffer pH 7.4; methanol/PBS 60:40 v/v
Excerpt: To investigate a possible correlation between MAO inhibitory potency and lipophilicity,[7] we calculated log P with three different programs (ChemDraw 15.0; ALOG PS 2.1; ChemSketch 2017, see Table S1 in Supporting Information) and compared the calculated values with experimental lipophilicity indexes as assessed by reversed‐phase (RP) HPLC in isocratic conditions for the majority of compounds. The log of capacity factors (log k’) measured by RP‐HPLC using a mixture of methanol/PBS (60 : 40, v/v) as the mobile phase are reported in Tables 1 and 2, along with Clog P values calculated with ChemDraw. These calculated lipophilicity descriptors correlated with the experimental log k’ values (n=13, r ^2=0.901) better than the other log Ps calculated by ALOG PS and ChemSketch computational tools (r ^2 equal 0.705 and 0.568, respectively). As shown by the scatter plots in Figure 4 and Figure S1 in Supporting Information, there is no evident correlation trend between MAO A/B inhibition data and lipophilicity calculated by the expert system implemented in ChemDraw for compounds achieving finite IC50 values.
Log k’ values (k’=(tr‐t0)/t0) and purity determinations were carried out using a Phenomenex Gemini C18 4.6×150 mm, with 3 μm size particles, built on a Waters double pump HPLC system in isocratic conditions. Injection volumes were 10 μL, flow rate was 0.5 mL/min, and detection was performed with UV (λ=254 and 370 nm). Samples were prepared by dissolving 0.1 mg/mL of the solute in 10 % v/v DMSO and 90 % v/v methanol. Retention times (tr) were measured at least from three separate injections, and dead time (t0) was the retention time of deuterated methanol. The mobile phase was filtered through a Supelco Nylon‐66 membrane 0.45 μm (Merck Life Science Srl, Milan, Italy) before use. For each reference compound, the average tr of three consecutive injections of 10 μL of sample was used to calculate the log k’ values. The eluent consisted of five different mixtures of methanol and PBS buffer 10 mM at pH 7.4, with methanol/buffer ratios ranging from 80 : 20 to 60 : 40 v/v.

[2] = Hydrolytic stability in buffered solution (PBS pH 7.4, 37 °C); format: physicochemical; conditions: 20 μM in 10 mM PBS pH 7.4, 37 °C, 6 h incubation
Description: The hydrolytic stability of some representative imino/hydrazone/hydrazide derivatives was determined in buffered aqueous media. […]. […]. The hydrolytic degradation of 9 in its starting reagents was confirmed by the comparison of the chromatograms of 9 and 2‐chloro‐4‐hydroxyaniline, obtained in the same chromatographic conditions (Figure 6B).
Stability studies in buffered solution were performed following an already described procedure,[23] on a Phenomenex C18 column (150×4.6 mm i.d., 3 μm particle size; Phenomenex, Castel Maggiore, Italy) using a mobile phase consisting of a mixture of methanol‐water (75 : 25 v/v, with aqueous formic acid 0.1 %). The used flow rate was 0.500 mL/min while the injection volume was 20 μL. Wavelength of UV‐Vis detector was adjusted at 254 nm. The chemical stability was evaluated in a phosphate buffer solution pH 7.4 (10 mM HPO4 ^2−/H2PO4 ^−; 100 mM NaCl) at 37 °C. Five different concentrations from 0.5 μM to 20 μM were studied in a 2 h time range (data not shown). Each concentration (0.5, 1, 5, 10 and 20 μM) was tested in triplicate starting from 3 different stocks solution (1 mM) prepared separately. The time range was extended to 6 h only for the samples at 20 μM concentration (Figure 6a).

T1 sequence (P22303 32-614): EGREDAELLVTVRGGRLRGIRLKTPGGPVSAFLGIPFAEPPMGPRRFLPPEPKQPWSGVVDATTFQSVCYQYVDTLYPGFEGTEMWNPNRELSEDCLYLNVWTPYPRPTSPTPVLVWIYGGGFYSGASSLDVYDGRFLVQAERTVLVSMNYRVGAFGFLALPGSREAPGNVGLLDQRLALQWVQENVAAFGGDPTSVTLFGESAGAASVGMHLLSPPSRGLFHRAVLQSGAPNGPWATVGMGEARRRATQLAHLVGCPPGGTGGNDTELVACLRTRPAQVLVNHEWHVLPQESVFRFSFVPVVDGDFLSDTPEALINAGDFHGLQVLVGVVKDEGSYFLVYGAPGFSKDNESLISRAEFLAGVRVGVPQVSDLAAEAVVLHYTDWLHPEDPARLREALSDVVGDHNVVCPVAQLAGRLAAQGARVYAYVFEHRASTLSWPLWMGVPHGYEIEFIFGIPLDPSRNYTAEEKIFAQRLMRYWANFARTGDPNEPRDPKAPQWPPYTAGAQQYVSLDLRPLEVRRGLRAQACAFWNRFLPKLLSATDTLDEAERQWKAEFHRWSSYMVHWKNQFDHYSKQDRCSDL

| Structure (SMILES) | inhibition at 10 µM (hAChE) | inhibition at 10 µM (hMAO A) | IC50 (hMAO B) | log k’ (logarithm of capacity factor, RP-HPLC) [1] | IC50 (hMAO A) | hydrolytic stability [2] | inhibition at 10 µM (hMAO B) | IC50 (hAChE) | % inhibition at 10 μM hMAO B (hMAO B; 10 μM) |
| --- | --- | --- | --- | --- | --- | --- | --- | --- | --- |
| O=C(NN=Cc1ccc(-c2ccc([N+](=O)[O-])cc2)o1)c1cccs1 [Compound 1, N ′‐((5‐(4‐nitrophenyl)furan‐2‐yl)methylene)thiophene‐2‐carbohydrazide] | 40% | 33% | 3.67 ± 0.92 µM | 0.947 | – | – | – | – | – |
| O=C(N/N=C/c1ccc(-c2ccc([N+](=O)[O-])cc2)o1)c1ccncc1 [Compound 2] | 30% | – | 3.56 ± 0.36 µM | 0.522 | 7.89 ± 1.1 µM | – | – | – | – |
| CN1CCN(N=Cc2ccc(-c3ccc([N+](=O)[O-])cc3)o2)CC1 [Compound 3, N ‐(4‐methylpiperazin‐1‐yl)‐1‐(5‐(4‐nitrophenyl)furan‐2‐yl)methanimine] | 44% | – | 3.15 ± 0.03 µM | 0.752 | 5.61 ± 1.11 µM | substantial stability | – | – | – |
| N#Cc1ccc(-c2ccc(C=NNC(=O)c3cccs3)o2)cc1 [Compound 4, N ′‐((5‐(4‐cyanophenyl)furan‐2‐yl)methylene)thiophene‐2‐carbohydrazide] | 51% | – | 2.63 ± 0.42 µM | – | 1.46 ± 0.21 µM | substantial stability | – | – | – |
| N#Cc1ccc(-c2ccc(/C=N/NC(=O)c3ccncc3)o2)cc1 [Compound 5, N ′‐((5‐(4‐cyanophenyl)furan‐yl)methylene)isonicotinohydrazide] | 27% | – | 12.6 ± 0.9 µM | 0.312 | 6.62 ± 0.71 µM | – | – | – | – |
| CC(=O)NN=Cc1ccc(-c2ccc(C#N)cc2)o1 [Compound 6, N ′‐((5‐(4‐cyanophenyl)furan‐2‐yl)methylene)acetohydrazide] | 38% | – | 2.65 ± 0.11 µM | 0.236 | 4.25 ± 0.45 µM | – | – | – | – |
| N#Cc1ccc(-c2ccc(/C=N/N3CC(=O)NC3=O)o2)cc1 [Compound 7] | 28% | 40% | – | – | – | – | 50% | – | – |
| N#Cc1ccc(-c2ccc(C=NNC(=O)Cc3ccccc3)o2)cc1 [Compound 8, N ′‐((5‐(4‐cyanophenyl)furan‐2‐yl)methylene)‐2‐phenyl‐acetohydrazide] | 16% | – | 3.61 ± 0.04 µM | 0.803 | 5.51 ± 0.54 µM | – | – | – | – |
| COc1ccc(N/N=C/c2ccc(-c3ccc(C#N)cc3)o2)cc1 [Compound 10] | – | 47% | – | – | – | – | 29% | – | – |
| CS(=O)(=O)c1ccc(NN=Cc2ccc(-c3ccc(C#N)cc3)o2)cc1 [Compound 11, 4‐(5‐((2‐(4‐(methylsulfonyl)phenyl)hydrazono)methyl)furan‐2‐yl)benzonitrile] | 39% | 11% | – | – | – | – | 28% | – | – |
| N#Cc1ccc(-c2ccc(/C=N/Nc3ccc(S(N)(=O)=O)cc3)o2)cc1 [Compound 12] | – | – | – | 0.466 | 10 ± 1.9 µM | – | 28% | 1.67 ± 0.19 µM | – |
| COc1cc(C=NNC(=O)c2cccs2)ccc1-c1ccc(C#N)cc1 [Compound 13, N ′‐[(4′‐cyano‐2‐methoxy[1,1′‐biphenyl]‐4‐yl)methylidene]thiophene‐2‐carbohydrazide] | 35% | 29% | 2.32 ± 0.43 µM | 0.549 | – | – | – | – | – |
| O=C1CN(/N=C/c2ccco2)C(=O)N1 [Compound 14] | – | 11% | – | −1.018 | – | – | – | 9.06 ± 0.45 µM | no inhibition |
| O=C(N/N=C/c1ccco1)c1cccs1 [Compound 15] | – | 16% | – | −0.010 | – | – | 13% | 7.18 ± 0.07 µM | – |
| CN1CCN(N=Cc2ccco2)CC1 [Compound 16, 1‐(Furan‐2‐yl)‐N‐(4‐methylpiperazin‐1‐yl)methanimine] | 21% | 18% | – | – | – | – | 13% | – | – |
| O=C(Cc1ccccc1)NN=Cc1ccco1 [Compound 17, N ′‐((furan‐2‐yl)methylidene)‐2‐phenylacetohydrazide] | 52% | 22% | – | – | – | – | 22% | – | – |
| NS(=O)(=O)c1ccc(NN=Cc2ccco2)cc1 [Compound 18, 4‐(‐2‐((furan‐2‐yl)methylidene)hydrazinyl)benzene‐1‐sulfonamide] | 27% | 25% | – | – | – | – | 21% | – | – |
| COc1cccc(/C=N/NC(=O)c2ccncc2)c1 [Compound 19] | – | 19% | 12.2 ± 1.5 µM | 0.129 | – | – | – | 11.2 ± 1.6 µM | – |
| COc1cccc(C=NNc2ccc(S(N)(=O)=O)cc2)c1 [Compound 20, 4‐(2‐((3‐methoxyphenyl)methylidene)hydrazinyl)benzene‐1‐sulfonamide] | – | 42% | 0.81 ± 0.04 µM | 0.307 | – | – | – | 10.2 ± 1.6 µM | – |
| COc1cc(C=NN2CC(=O)NC2=O)cc(OC)c1OC [Compound 21, 1‐(((3,4,5‐trimethoxyphenyl)methylidene)amino)imidazolidine‐2,4‐dione] | 28% | 8% | – | – | – | – | 18% | – | – |
